Results: patent publication US20230295201A1 (Gilead Sciences, Inc., priority 2020, published 2023)
Like-named read-outs stand apart in the source and are kept apart here.

Legend:
Type in all cases: cell-based
DENV2 replicon = assay: DENV-2 Huh-7 Rep EC50 (replicon luminescence); conditions: read-out: DENV-2 Huh-7 Rep EC50
Summary of the method: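 EC50 derived from luminescence dose-response, normalised to DMSO-only 0% inhibition wells, after 1.5 h with EnduRen substrate. Compounds were first exposed for 48 h at 37° C to DENV2 replicon Huh-7 cells (5,000/well).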

[1] = test system: Dengue serotype 2 New Guinea C (NGC) strain; assay: DENV-2 Huh-7 EC50 (qPCR in Huh7 cells)
Protocol: Huh7 (Human hepatocarcinoma 7) cells were maintained in 10% FCS-containing DMEM complete media. On the day of the assay, cells were trypsinized (0.1% Trypsin-EDTA), washed and infected for 2 hours in serum-free DMEM with Dengue serotype 2 New Guinea C (NGC) strain at MOI=0.1 with gentle agitation at 37° C. After 2 hours, cells were washed with serum-free media and suspended in 10% FCS-containing DMEM (Gibco, supplemented with sodium pyruvate, NEAA, Penicillin-Streptomycin). 10^5 cells were plated in triplicate in 96-well plates with compounds dispensed at graded doses (Hewlett-Packard D300 Digital Dispenser). All wells were normalized to 0.25% DMSO. At 48 hours, cells were washed with 1×PBS and all supernatants removed. Total RNA was extracted using RNEasy 96 plates (Qiagen) and used to generate first-strand cDNA using XLT cDNA 5×Supermix (QuantaBio). cDNA was used as a template in a Taqman qPCR duplex reaction specific to DENV2 viral and GAPDH gene expression. EC50 values were determined using Prism Graphpad software, with normalization to a positive control and no compound negative control wells.

RSV strain A2 = assay: RSV HEp-2 EC50 (infectious cytopathic cell protection assay); conditions: read-out: RSV HEp-2 EC50
Summary of the method: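 Percent inhibition of RSV-induced cytopathic effect came from remaining cell viability (CellTiter-Glo luminescence) after 4 days at 37° C. Compounds in 3-fold serial dilutions were exposed to an infectious mix of titered A2 virus and HEp-2 cells at 50,000/ml, with 0% and 100% inhibition control standards.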

HRV16 = HRV16 HELA EC50 (cytopathic effect in H1-HeLa cells)
Summary of the method: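 Read-out is luminescent cell viability (CellTiter-Glo) after 96 h of infection at 33 °C, scaled between uninfected and infected-untreated wells. Before infection with titrated virus, compounds went onto H1-HeLa cells as triplicate 3-fold dilution series.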

RSV A2 = assay: RSV NHBE EC50 (RSV A2 antiviral assay in normal human bronchial epithelial cells); conditions: read-out: RSV NHBE EC50
[2] = Dengue virus, DENV2, Huh-7, 48 h, Huh-7 replicon cells, 48 hours
[3] = Dengue virus, DENV2, Huh-7, 48 h
[4] = human respiratory syncytial virus, HEp-2, 96 h, HEp-2 cells, RSV A2, 4 days
[5] = 96 h, H1-HeLa cells, 33° C., read-out: HRV16 HELA EC50
[6] = human respiratory syncytial virus, NHBE, 96 h, NHBE cells, RSV A2, 4 days
[7] = H1-HeLa cells, 96 h, 33° C.; read-out: HRV16 HELA EC50

Row | Compound | EC50 (DENV2 replicon; [2]) | EC50 [1, 3] | EC50 (RSV strain A2; [4]) | EC50 (HRV16; [5]) | EC50 (RSV A2; [6]) | EC50 (DENV2 replicon; Huh-7 replicon cells, 48 hours) | EC50 ([1]; 48 hours) | EC50 (RSV strain A2; HEp-2 cells, RSV A2, 4 days) | EC50 (RSV A2; NHBE cells, RSV A2, 4 days) | further results
1 | CC(C)(C)C(=O)OCCNP(=O)(OC[C@@]1(C#N)O[C@@H](c2ccc3c(N)ncnn23)[C@H](O)[C@@H]1O)Oc1ccccc1 (mixture of isomers) [Example 11, 2-(((((2R,3S,4R,5S)-5-(4-aminopyrrolo[2,1-f][1,2,4]triazin-7-yl)-2-cyano-3,4-dihydroxytetrahydrofuran-2-yl)methoxy)(phenoxy)phosphoryl)amino)ethyl pivalate] | > 50000 nM | 3500 nM | 269 nM | 1200 nM | 54 nM |  |  |  |  | 
2 | CCOC(=O)[C@H](C)NP(=O)(OC[C@@]1(C#N)O[C@@H](c2ccc3c(N)ncnn23)[C@H](O)[C@@H]1O)Oc1ccc(C(C)(C)C)cc1 (mixture of isomers) [Example 263, Ethyl ((((2R,3S,4R,5S)-5-(4-aminopyrrolo[2,1-f][1,2,4]triazin-7-yl)-2-cyano-3,4-dihydroxytetrahydrofuran-2-yl)methoxy)(4-(tert-butyl)phenoxy)phosphoryl)-L-alaninate] | 8030 nM | 569 nM | 35 nM |  |  |  |  |  |  | 
3 | C[C@H](NP(=O)(OC[C@@]1(C#N)O[C@@H](c2ccc3c(N)ncnn23)[C@H](O)[C@@H]1O)Oc1ccccc1)C(=O)OCC1CC1 (single isomer, unassigned) [Example 9] |  |  |  |  |  | > 50000 nM | 1460 nM | 1010 nM | 97 nM | EC50 (HRV16; [7]): 324 nM
4 | C[C@H](NP(=O)(OC[C@@]1(C#N)O[C@@H](c2ccc3c(N)ncnn23)[C@H](O)[C@@H]1O)Oc1ccccc1)C(=O)OCC1CC1 (single isomer, unassigned) [Example 10] |  |  |  |  |  | 17900 nM | 2790 nM | 191 nM | 421 nM | EC50 (HRV16; [7]): 583 nM
5 | CC(NP(=O)(OCC1(C#N)OC(c2ccc3c(N)ncnn23)C(O)C1O)Oc1ccccc1)C(=O)OCC1CCC(C(F)(F)F)CC1 (single isomer, unassigned) [Example 27] |  |  |  |  |  | 82200 nM | 5680 nM | 1300 nM | 18 nM | EC50 (HRV16; [7]): 3160 nM
6 | CC(NP(=O)(OCC1(C#N)OC(c2ccc3c(N)ncnn23)C(O)C1O)Oc1ccccc1)C(=O)OCC1CCC(C(F)(F)F)CC1 (single isomer, unassigned) [Example 28] |  |  |  |  |  | 29600 nM | 2160 nM | 238 nM | 53 nM | EC50 (HRV16; [7]): 590 nM
7 | COCCCOC(=O)[C@H](C)NP(=O)(OC[C@@]1(C#N)O[C@@H](c2ccc3c(N)ncnn23)[C@H](O)[C@@H]1O)Oc1ccccc1 (single isomer, unassigned) [Example 59] |  |  |  |  |  | 56500 nM | 4650 nM |  | 111 nM | 
8 | C[C@H](NP(=O)(OC[C@@]1(C#N)O[C@@H](c2ccc3c(N)ncnn23)[C@H](O)[C@@H]1O)Oc1ccccc1)C(=O)OC1CCCCCC1 (single isomer, unassigned) [Example 135] |  | 1390 nM |  |  | 66 nM |  |  | 233 nM |  | 
9 | CCOC(=O)[C@H](C)NP(=O)(OC[C@@]1(C#N)O[C@@H](c2ccc3c(N)ncnn23)[C@H](O)[C@@H]1O)Oc1ccc(C(C)(C)C)cc1 (single isomer, unassigned) [Example 265] |  | 390 nM |  |  |  |  |  | 215 nM |  | 
10 | C[C@H](NP(=O)(OC[C@@]1(C#N)O[C@@H](c2ccc3c(N)ncnn23)[C@H](O)[C@@H]1O)Oc1ccccc1)C(=O)OCc1ccccc1 (stereo partly drawn) [Example 37, benzyl ((((2R,3S,4R,5S)-5-(4-aminopyrrolo[2,1-f][1,2,4]triazin-7-yl)-2-cyano-3,4-dihydroxytetrahydrofuran-2-yl)methoxy) (phenoxy)phosphoryl)-L-alaninate] | 6700 nM | 1510 nM | 136 nM | 329 nM | 129 nM |  |  |  |  | 
11 | C[C@H](N[P@@](=O)(OC[C@@]1(C#N)O[C@@H](c2ccc3c(N)ncnn23)[C@H](O)[C@@H]1O)Oc1ccccc1)C(=O)OCC1CCC1 [Example 119] |  |  |  |  |  | 31100 nM | 4280 nM | 539 nM | 120 nM | EC50 (HRV16; [7]): 247 nM
12 | CC(C)C(=O)Nc1ncnn2c([C@@H]3O[C@](C#N)(CO[P@@](=O)(N[C@@H](C)C(=O)OC4CCCCC4)Oc4ccccc4)[C@@H](O)[C@H]3O)ccc12 [Example 235, cyclohexyl ((S)-(((2R,3S,4R,5S)-2-cyano-3,4-dihydroxy-5-(4-isobutyramidopyrrolo[2,1-f][1,2,4]triazin-7-yl)tetrahydrofuran-2-yl)methoxy)(phenoxy)phosphoryl)-L-alaninate] | 3960 nM |  | 114 nM | 1100 nM | 510 nM |  |  |  |  | 
13 | CC(C)OC(=O)[C@H](C)N[P@](=O)(OC[C@@]1(C#N)O[C@@H](c2ccc3c(N)ncnn23)[C@@H]2OC(=O)O[C@@H]21)Oc1ccccc1 [Example 236, isopropyl ((S)-(((3aS,4R,6S,6aS)-6-(4-aminopyrrolo[2,1-f][1,2,4]triazin-7-yl)-4-cyano-2-oxotetrahydrofuro[3,4-d][1,3]dioxol-4-yl)methoxy) (phenoxy)phosphoryl)-L-alaninate] | 17900 nM |  | 189 nM | 741 nM | 949 nM |  |  |  |  | 
14 | CC(C)[C@H](N)C(=O)Nc1ncnn2c([C@@H]3O[C@](C#N)(CO[P@@](=O)(N[C@@H](C)C(=O)OC4CCCCC4)Oc4ccccc4)[C@@H](O)[C@H]3O)ccc12 [Example 237, cyclohexyl ((S)-(((2R,3S,4R,5S)-5-(4-((S)-2-amino-3-methylbutanamido)pyrrolo[2,1-f][1,2,4]triazin-7-yl)-2-cyano-3,4-dihydroxytetrahydrofuran-2-yl)methoxy)(phenoxy)phosphoryl)-L-alaninate] | > 50000 nM |  | > 38400 nM | > 50000 nM | > 10800 nM |  |  |  |  | 
15 | CCC(CC)COC(=O)[C@H](C)OP(=O)(OC[C@@]1(C#N)O[C@@H](c2ccc3c(N)ncnn23)[C@H](O)[C@@H]1O)Oc1ccccc1 (stereo partly drawn) [Example 244, 2-ethylbutyl (2S)-2-(((((2R,3S,4R,5S)-5-(4-aminopyrrolo [2,1-f][1,2,4]triazin-7-yl)-2-cyano-3,4-dihydroxytetrahydrofuran-2-yl)methoxy)(phenoxy)phosphoryl)oxy)propanoate] |  |  |  |  |  |  |  |  |  | EC50 (DENV2 replicon; [3]): 36700 nM; EC50 (RSV strain A2; human respiratory syncytial virus, HEp-2, 96 h): 4950 nM; EC50 (HRV16; 96 h, read-out: HRV16 HELA EC50): 33600 nM; EC50 (RSV A2; human respiratory syncytial virus, NHBE, 96 h): > 5000 nM
16 | C[C@H](NP(=O)(OC[C@@]1(C#N)O[C@@H](c2ccc3c(N)ncnn23)[C@H](O)[C@@H]1O)Oc1ccccc1)C(=O)OCC(CO)CO (stereo partly drawn) [Example 245, 3-hydroxy-2-(hydroxymethyl)propyl ((((2R,3S,4R,5S)-5-(4-aminopyrrolo[2,1-f][1,2,4]triazin-7-yl)-2-cyano-3,4-dihydroxytetrahydrofuran-2-yl)methoxy)(phenoxy)phosphoryl)-L-alaninate] | > 50000 nM |  | 3790 nM | 29000 nM | > 5000 nM |  |  |  |  | 
17 | C[C@H](NP(=O)(OC[C@@]1(C#N)O[C@@H](c2ccc3c(N)ncnn23)[C@H](O)[C@@H]1O)Oc1ccccc1)C(=O)OCC1(C)CC1 (stereo partly drawn) [Example 257, (1-methylcyclopropyl)methyl ((((2R,3S,4R,5S)-5-(4-aminopyrrolo[2,1-f][1,2,4]triazin-7-yl)-2-cyano-3,4-dihydroxytetrahydrofuran-2-yl)methoxy)(phenoxy)phosphoryl)-L-alaninate] | 5480 nM | 2210 nM | 29 nM |  |  |  |  |  |  | 
18 | C[C@H](NP(=O)(OC[C@@]1(C#N)O[C@@H](c2ccc3c(N)ncnn23)[C@H](O)[C@@H]1O)Oc1ccccc1)C(=O)OCC(C)(C)C(F)(F)F (stereo partly drawn) [Example 260, 3,3,3-trifluoro-2,2-dimethylpropyl ((((2R,3S,4R,5S)-5-(4-aminopyrrolo[2,1-f][1,2,4]triazin-7-yl)-2-cyano-3,4-dihydroxytetrahydrofuran-2-yl)methoxy)(phenoxy)phosphoryl)-L-alaninate] | 9950 nM | 682 nM | 66 nM |  |  |  |  |  |  | 
